Laboratory results as given in patent US20120295838A1, “Selective poly-substituted glycine antibiotics and related compositions” (priority 2008, published 2012).
Read-outs that look alike come from different tables or passages of the source. Square brackets hold non-standard residues; d marks the D form. Peptide text beside a SMILES is read from it. Nspe = C[C@H](NCC(=O)O)c1ccccc1; Nlys = NCCCCNCC(=O)O

Tests used:
human erythrocytes = assay: Hemolysis assay; type: cell-based
Procedure: (§1) Hemolysis assays. Erythrocytes were isolated from freshly drawn, heparanized human blood and resuspended to 20 vol % in PBS (pH 7.4). In a 96-well microtiter plate, 100 μL erythrocyte suspension was added to 100 uL peptoid solution in PBS (prepared by 1:2 serial dilutions), or 100 μL PBS in the case of negative controls. 100% hemolysis wells contained 100 μL, blood cell suspension with 100 μL 0.2 vol % Triton X-100. The plate was incubated for 1 h at 37° C., then each well was diluted with 1504 PBS. The plate was then centrifuged at 1200 g for 15 min, 100 μL of the supernatant from each well transferred to a fresh microtiter plate, and A350 measured.
Hemolysis assays. Erythrocytes were isolated from freshly drawn, heparanized human blood and resuspended in PBS (pH 7.4) to make a 20% volume suspension. Peptoid solutions were prepared by serial dilution (2:1) in a 96-well microtiter plate. For test wells, 100 μLL of erythrocyte suspension was added to 100 μL of peptoid solution in PBS; PBS without peptoid was used as the negative control and 0.2 vol % Triton X-100 as the positive control that indicates 100% hemolysis. After 1 hour incubation at 37° C., each well was diluted with 150 μL PBS. Plates were then centrifuged at 1,200×g for 15 minutes to pellet the cells. 30 μL of the supernatant from each well were transferred to the corresponding well of a second 96-well plate that contains 70 μL PBS.
as §1, with “assays for Compositions.” for “assays.”, “100” for “100 uL”, “μL” for “μL,”, “150 μL” for “1504”, “1200g” for “1200 g”

E. coli ATCC 35218 = type: cell-based
Procedure: (§2) Whereas the preceding generation of molecules was designed to elucidate structure function relationships of specific molecular parameters (chirality, length, hydrophobicity, etc.), another generation compounds were designed explicitly to explore effects on selectivity. Antimicrobial activity of these compounds was tested against bacterial strains E. coli (ATTC 35218) and B. subtilis (ATTC 6633) in cation-adjusted MHB using the microdilution protocols previously described. The sequences, antimicrobial activities, hemolytic activities, and metabolic inhibitory concentrations against NIH 3T3 mouse fibroblast cells are summarized in Table 3 and the rationale of their design is described below.
(§3) Screening antibacterial assays. MICs were determined in 96-well microtiter plates in accordance with CLSI M7-A6 protocols. Peptoid solutions with 50 μL total volume were prepared using 2:1 serial dilutions. 50 i—tL of bacteria inoculum (1×10^6 CFU/mL) prepared in cation-adjusted Mueller-Hinton broth (CAMHB) was added to test wells. Control wells contained 100 μL MHB (no growth) or 50 μL inoculums with 50 μL MHB with no peptoid. […] Reported values were reproducible over three experiments, each containing two parallel trials.
(§4) Antibacterial Assays for Compositions. MICs were determined according to CLSI M7-A6 protocols in a 96-well microtiter plate. In test wells, 50 μL bacterial inoculum (1×10^6 CFU/ml) in cation-adjusted Mueller-Hinton broth (CAMHB) was added to 50 μL peptoid solution in CAMHB (prepared by 1:2 serial dilutions). Positive controls contained 50 μL inoculum and 50 μL CAMHB without peptoid. […] MIC values reported were reproducible between three independent experimental replicates, each consisting of two parallel trials.

MTS assay, NIH 3T3 cells = type: cell-based, mouse; conditions: mouse, NIH 3T3 fibroblast cells
Procedure: The potencies of all compounds were determined against representative Gram-negative (E. coli ATCC 35218) and Gram-positive (B. subtilis ATCC 6633) biosafety level 1 (BSL1) organisms. In addition to hemolytic activity, the conventional measure of toxicity to mammalian cells, the effect of each ampetoid on NIH 3T3 mouse fibroblast cells was determined using the MTS tetrazolium salt-based colorimetric assay. While hemolysis measures the degree to which erythrocytes are lysed, the MTS assay indirectly quantifies the extent to which cellular metabolic activity is inhibited.
MTS assays. NIH/3T3 cells (ATCC Corporation) cultured at 37° C. and 5% CO2 in complete Dulbecco's modified eagle's media (CDMEM) supplemented with 1% sodium pyruvate, 1% penicillin-streptomycin, 1.5 g/L NaHCO3, and 10% fetal bovine serum. Cells were seeded at a density of 5,000 cells per well for NIH/3T3 cells in 96-well plates (100 μl total volume). A peptoid solution plate (100 μL total volume per well) was prepared by serial dilution of aqueous peptoid stock solution in Hank's balanced salt solution (HBSS) media. The day-old cell monolayers were washed with HBSS and media was replaced with 100 μL HBSS. The contents of the peptoid solution plate were transferred onto corresponding wells of the cell monolayer plate, and 40 μL MTS reagent (Promega, Inc.) was added to each well. After incubating for 3 hours at 37° C., absorbance at 490 nm was determined. […] The average of six replicates is reported.

B. subtilis ATCC 6633 = type: cell-based
Procedure: as §2, §3, §4

SMILES | HD10 (human erythrocytes) [µM] | E. coli MIC (E. coli ATCC 35218; ATCC 35218) [µM] | CC50 at 3 h (MTS assay, NIH 3T3 cells) [µM] | further results
C[C@H](NCC(=O)N(CC(=O)N(CCCCN)CC(=O)N(CC(=O)N(CC(=O)N(CCCCN)CC(=O)N(CC(=O)N(CC(=O)N(CCCCN)CC(=O)N(CC(=O)N(CC(=O)N(CCCCN)CC(N)=O)[C@@H](C)c1ccccc1)[C@@H](C)c1ccccc1)[C@@H](C)c1ccccc1)[C@@H](C)c1ccccc1)[C@@H](C)c1ccccc1)[C@@H](C)c1ccccc1)[C@@H](C)c1ccccc1)c1ccccc1 [1C, H-(Nspe-Nspe-Nlys)4-NH2] (H-[Nspe][Nspe][Nlys][Nspe][Nspe][Nlys][Nspe][Nspe][Nlys][Nspe][Nspe][Nlys]-NH2) | 25 | 6.3 | 5.6 | –
C[C@H](NCC(=O)N(CC(=O)N(CCCCN)CC(=O)N(CC(=O)N(CCCCN)CC(=O)N(CC(=O)N(CCCCN)CC(=O)N(CC(=O)N(CC(=O)N(CC(=O)N(CC(=O)N(CCCCN)CC(N)=O)[C@@H](C)c1ccccc1)[C@@H](C)c1ccccc1)[C@@H](C)c1ccccc1)[C@@H](C)c1ccccc1)[C@@H](C)c1ccccc1)[C@@H](C)c1ccccc1)[C@@H](C)c1ccccc1)c1ccccc1 [1scr, H-(Nspe)2-(Nlys-Nspe)3-(Nspe)3-Nlys-NH2] (H-[Nspe][Nspe][Nlys][Nspe][Nlys][Nspe][Nlys][Nspe][Nspe][Nspe][Nspe][Nlys]-NH2) | 64 | 6.3 | 8.5 | –
C[C@@H](c1ccccc1)N(CC(=O)N(CCCCN)CC(=O)N(CC(=O)N(CC(=O)N(CCCCN)CC(=O)N(CC(=O)N(CC(=O)N(CCCCN)CC(N)=O)[C@@H](C)c1ccccc1)[C@@H](C)c1ccccc1)[C@@H](C)c1ccccc1)[C@@H](C)c1ccccc1)C(=O)CN(C(=O)CNCCCCN)[C@@H](C)c1ccccc1 [110 mer, H-(Nlys-Nspe-Nspe)3-Nlys-NH2] (H-[Nlys][Nspe][Nspe][Nlys][Nspe][Nspe][Nlys][Nspe][Nspe][Nlys]-NH2) | > 200 | 12.5 | 54 | –
C[C@H](NCC(=O)N(CCCCN)CC(=O)N(CC(=O)N(CC(=O)N(CCCCN)CC(=O)N(CC(=O)N(CC(=O)N(CCCCN)CC(=O)N(CC(=O)N(CC(=O)N(CCCCN)CC(=O)N(CC(N)=O)[C@@H](C)c1ccccc1)[C@@H](C)c1ccccc1)[C@@H](C)c1ccccc1)[C@@H](C)c1ccccc1)[C@@H](C)c1ccccc1)[C@@H](C)c1ccccc1)[C@@H](C)c1ccccc1)c1ccccc1 [1B, H-(Nspe-Nlys-Nspe)4-NH2] (H-[Nspe][Nlys][Nspe][Nspe][Nlys][Nspe][Nspe][Nlys][Nspe][Nspe][Nlys][Nspe]-NH2) | 55 | 6.3 | 4.9 | –
CC(C)[C@H](C)N(CC(N)=O)C(=O)CN(C(=O)CN(CCCCN)C(=O)CN(C(=O)CN(C(=O)CN(CCCCN)C(=O)CN(C(=O)CN(C(=O)CN(CCCCN)C(=O)CN(C(=O)CN(C(=O)CNCCCCN)[C@@H](C)C(C)C)[C@@H](C)C(C)C)[C@@H](C)C(C)C)[C@@H](C)C(C)C)[C@@H](C)C(C)C)[C@@H](C)C(C)C)[C@@H](C)C(C)C [1-Nsdpall, H-(Nlys-Nsdp-Nsdp)4-NH2] | – | – | 64 | B. subtilis MIC (B. subtilis ATCC 6633; Table 6, B. subtilis ATCC 6633): 0.78 µM; Selectivity ratio SR B. subtilis (B. subtilis ATCC 6633; Table 6, ratio of 10% hemolytic dose to B. subtilis MIC): 256; E. coli MIC (E. coli ATCC 35218; Table 6, E. coli ATCC 35218): 25 µM; Selectivity ratio SR E. coli (E. coli ATCC 35218; Table 6, ratio of 10% hemolytic dose to E. coli MIC): > 8
C[C@@H](c1ccc2ccccc2c1)N(CC(N)=O)C(=O)CN(C(=O)CN(CCCCN)C(=O)CN(C(=O)CN(C(=O)CN(CCCCN)C(=O)CN(C(=O)CN(C(=O)CN(CCCCN)C(=O)CN(C(=O)CN(C(=O)CNCCCCN)[C@@H](C)c1ccccc1)[C@@H](C)c1ccccc1)[C@@H](C)c1ccccc1)[C@@H](C)c1ccc2ccccc2c1)[C@@H](C)c1ccccc1)[C@@H](C)c1ccccc1)[C@@H](C)c1ccccc1 [1-Nsna6,12, H-(Nlys-Nspe-Nspe-Nlys-Nspe-Nsna)2-NH2] | 7 | – | – | HD50 (human erythrocytes): 27 µM; HD10 (10% hemolytic dose) (human erythrocytes; red cells of human, 1 h): 4 µM; HD50 (50% hemolytic dose) (human erythrocytes; red cells of human, 1 h): 22 µM; MIC for B. subtilis ATCC 6633 (B. subtilis ATCC 6633; ATCC 6633): 0.78 to 1.6 µM; MIC for E. coli ATCC 35218 (E. coli ATCC 35218; ATCC 35218): 25 to 50 µM
C[C@H](NCC(=O)N(CCCCN)CC(=O)N(CC(=O)N(CCCCN)CC(=O)N(CCCCN)CC(=O)N(CCCCN)CC(=O)N(CC(=O)N(CCCCN)CC(=O)N(CC(=O)N(CCCCN)CC(=O)N(CCCCN)CC(=O)N(CC(=O)N(CC(=O)N(CCCCN)CC(=O)N(CC(N)=O)[C@@H](C)c1ccccc1)[C@@H](C)c1ccccc1)[C@@H](C)c1ccccc1)[C@@H](C)c1ccccc1)[C@@H](C)c1ccccc1)[C@@H](C)c1ccccc1)c1ccccc1 [1B15 mer-Nlys4,6,10, H-Nspe-Nlys-Nspe-Nlys-Nlys-Nlys-Nspe-Nlys-Nspe-Nlys-Nlys-Nspe-Nspe-Nlys-Nspe-NH2] (H-[Nspe][Nlys][Nspe][Nlys][Nlys][Nlys][Nspe][Nlys][Nspe][Nlys][Nlys][Nspe][Nspe][Nlys][Nspe]-NH2) | – | >100 | 40 | –
C[C@@H](c1ccccc1)N(CC(N)=O)C(=O)CN(C(=O)CN(CCCCN)C(=O)[C@@H]1CCCN1C(=O)CN(C(=O)CN(CCCCN)C(=O)CN(C(=O)CN(C(=O)CN(CCCCN)C(=O)[C@@H]1CCCN1C(=O)CN(C(=O)CNCCCCN)[C@@H](C)c1ccccc1)[C@@H](C)c1ccccc1)[C@@H](C)c1ccccc1)[C@@H](C)c1ccccc1)[C@@H](C)c1ccccc1 [1-Pro3,9, H-(Nlys-Nspe-L-Pro-Nlys-Nspe-Nspe)2-NH2] (H-[Nlys][Nspe]P[Nlys][Nspe][Nspe][Nlys][Nspe]P[Nlys][Nspe][Nspe]-NH2) | – | 50 | 71 | –
C[C@@H](c1ccccc1)N(CC(=O)N(CCCCN)CC(=O)N(CC(=O)N(CC(=O)N(CCCCN)CC(=O)N(CC(=O)N(CC(=O)N(CCCCN)CC(=O)N(CC(=O)N(CC(=O)N(CCCCN)CC(N)=O)[C@@H](C)c1ccccc1)[C@@H](C)c1ccccc1)[C@@H](C)c1ccccc1)[C@@H](C)c1ccccc1)[C@@H](C)c1ccccc1)[C@@H](C)c1ccccc1)C(=O)CN(C(=O)CNCCCCN)[C@@H](C)c1ccccc1 [113 mer, H-(Nlys-Nspe-Nspe)4-Nlys-NH2] (H-[Nlys][Nspe][Nspe][Nlys][Nspe][Nspe][Nlys][Nspe][Nspe][Nlys][Nspe][Nspe][Nlys]-NH2) | – | 3.1 | 5.6 | –
